Reference: the supplement of paper PMC10307832

Experiments:
Assay in all cases: relative viability (nuclei count vs DMSO), 5 days (fraction); higher = more cells survive
BGJ398 + Tozasertib = compound: CCN1CCN(c2ccc(Nc3cc(N(C)C(=O)Nc4c(Cl)c(OC)cc(OC)c4Cl)ncn3)cc2)CC1 [BGJ398] + Cc1cc(Nc2cc(N3CCN(C)CC3)nc(Sc3ccc(NC(=O)C4CC4)cc3)n2)n[nH]1 [Tozasertib] (partner 0.1 µM)
Outline: (§1)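 Cells from lung cancer lines were seeded into 1536-well plates and, one day later, dosed by pin tool. Treatments were either a single drug or a fixed dose of an anchor drug with five library-drug doses (not always all listed) in √10 steps. After 5 days, nuclei were stained in a one-step fixation (final 0.05% Triton X-100, 1% formaldehyde, 1 ug/ml Hoechst) and counted on 4× images, and relative viability is the treated-to-vehicle nuclei ratio, as the median of duplicate plates.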

BGJ398 + Alpelisib = compound: CCN1CCN(c2ccc(Nc3cc(N(C)C(=O)Nc4c(Cl)c(OC)cc(OC)c4Cl)ncn3)cc2)CC1 [BGJ398] + Cc1nc(NC(=O)N2CCC[C@H]2C(N)=O)sc1-c1ccnc(C(C)(C)C(F)(F)F)c1 [Alpelisib] (partner 2 µM)
Outline: as §1

BGJ398 + Palbociclib = compound: CCN1CCN(c2ccc(Nc3cc(N(C)C(=O)Nc4c(Cl)c(OC)cc(OC)c4Cl)ncn3)cc2)CC1 [BGJ398] + CC(=O)c1c(C)c2cnc(Nc3ccc(N4CCNCC4)cn3)nc2n(C2CCCC2)c1=O [Palbociclib] (partner 0.5 µM)
Outline: as §1

BGJ398 + Phenformin = compound: CCN1CCN(c2ccc(Nc3cc(N(C)C(=O)Nc4c(Cl)c(OC)cc(OC)c4Cl)ncn3)cc2)CC1 [BGJ398] + N=C(N)NC(=N)NCCc1ccccc1 [Phenformin] (partner 250 µM)
Outline: as §1

Cell Line | relative viability (BGJ398 + Tozasertib; first compound 0.01 µM) | relative viability (BGJ398 + Tozasertib; first compound 0.03162 µM) | relative viability (BGJ398 + Tozasertib; first compound 0.1 µM) | relative viability (BGJ398 + Tozasertib; first compound 0.3162 µM) | relative viability (BGJ398 + Tozasertib; first compound 1 µM) | relative viability (BGJ398 + Alpelisib; first compound 0.01 µM) | relative viability (BGJ398 + Alpelisib; first compound 0.03162 µM) | relative viability (BGJ398 + Alpelisib; first compound 0.1 µM) | relative viability (BGJ398 + Alpelisib; first compound 0.3162 µM) | relative viability (BGJ398 + Alpelisib; first compound 1 µM) | relative viability (BGJ398 + Palbociclib; first compound 0.01 µM) | relative viability (BGJ398 + Palbociclib; first compound 0.03162 µM) | relative viability (BGJ398 + Palbociclib; first compound 0.1 µM) | relative viability (BGJ398 + Palbociclib; first compound 0.3162 µM) | relative viability (BGJ398 + Palbociclib; first compound 1 µM) | relative viability (BGJ398 + Phenformin; first compound 0.01 µM) | relative viability (BGJ398 + Phenformin; first compound 0.03162 µM) | relative viability (BGJ398 + Phenformin; first compound 0.1 µM) | relative viability (BGJ398 + Phenformin; first compound 0.3162 µM) | relative viability (BGJ398 + Phenformin; first compound 1 µM)
201T | 1.05 | 0.877 | 0.965 | 0.914 | 0.91 | 1.08 | 1.01 | 0.893 | 0.964 | 0.994 | 0.387 | 0.358 | 0.356 | 0.349 | 0.268 | 0.45 | 0.444 | 0.457 | 0.382 | 0.386
A549 |  |  |  |  |  | 0.782 | 0.864 | 0.847 | 0.635 | 0.872 |  |  |  |  |  | 0.12 | 0.217 | 0.154 | 0.125 | 0.11
A-427 | 0.192 | 0.153 | 0.162 | 0.179 | 0.152 | 1.08 | 1.07 | 0.944 | 0.848 | 0.662 | 0.524 | 0.488 | 0.49 | 0.435 | 0.393 | 0.354 | 0.336 | 0.273 | 0.151 | 0.211
ABC-1 | 0.186 | 0.168 | 0.197 | 0.173 | 0.198 | 0.96 | 1.04 | 1.03 | 1.15 | 0.836 | 0.647 | 0.593 | 0.584 |  | 0.945 | 0.287 | 0.255 | 0.262 | 0.22 | 0.213
BEN | 0.587 | 0.488 | 0.543 | 0.513 | 0.527 | 0.896 | 1.2 | 0.993 | 0.923 | 0.759 | 0.522 | 0.457 | 0.43 | 0.481 | 0.401 | 0.263 | 0.284 | 0.284 | 0.261 | 0.241
CAL-12T | 0.285 | 0.324 | 0.279 | 0.233 | 0.243 | 1.11 | 1.37 | 1.25 | 1.36 | 1.47 | 0.44 | 0.504 | 0.516 | 0.49 | 0.352 | 0.542 | 0.621 | 0.599 | 0.579 | 0.642
COR-L23 | 0.216 | 0.248 | 0.205 | 0.188 | 0.182 | 0.755 | 0.872 | 0.686 | 0.843 | 0.824 | 0.299 | 0.332 | 0.269 | 0.288 | 0.273 | 0.42 | 0.441 | 0.5 | 0.397 | 0.391
COR-L 105 | 0.291 | 0.346 | 0.339 | 0.418 | 0.324 | 0.919 | 0.956 | 0.979 | 1.05 | 1.06 | 0.47 | 0.357 | 0.445 | 0.378 | 0.383 | 0.425 | 0.377 | 0.525 | 0.556 | 0.448
Calu-6 |  |  |  |  |  | 0.861 | 1.01 | 0.984 | 0.999 | 0.944 |  |  |  |  |  |  |  |  |  | 
ChaGo-K-1 | 0.229 | 0.24 | 0.19 | 0.215 | 0.226 |  |  |  |  |  | 0.914 | 0.959 | 0.944 | 0.962 | 0.923 | 0.488 | 0.47 | 0.525 | 0.487 | 0.458
EBC-1 |  |  |  |  |  | 0.806 | 0.85 | 0.917 | 0.812 | 0.884 |  |  |  |  |  |  |  |  |  | 
EKVX | 0.387 | 0.421 | 0.431 | 0.436 | 0.389 | 0.798 | 0.665 | 0.95 | 0.842 | 0.977 | 0.436 | 0.291 | 0.384 | 0.359 | 0.394 | 0.216 | 0.211 | 0.235 | 0.234 | 0.209
EMC-BAC-2 | 0.28 | 0.314 | 0.3 | 0.276 | 0.312 | 0.727 | 0.77 | 0.786 | 0.787 | 0.738 | 0.497 | 0.558 | 0.547 | 0.568 | 0.516 | 0.497 | 0.585 | 0.558 | 0.5 | 0.509
EPLC-272H | 0.17 | 0.276 | 0.203 | 0.288 | 0.227 | 0.895 | 0.812 | 0.846 | 0.752 | 0.952 | 0.32 | 0.314 | 0.324 | 0.359 | 0.358 | 0.243 | 0.283 | 0.272 | 0.247 | 0.38
H3255 | 0.628 |  | 0.472 | 0.743 | 0.608 | 0.676 |  | 0.747 | 0.37 | 0.792 | 0.281 | 0.321 | 0.314 | 0.315 | 0.314 | 0.338 |  | 0.371 | 0.231 | 0.35
HARA | 0.0926 | 0.116 | 0.0915 | 0.0847 | 0.0857 | 0.784 | 0.635 | 0.752 | 0.817 | 0.787 | 0.242 | 0.257 | 0.228 | 0.289 | 0.188 | 0.442 | 0.545 | 0.482 | 0.319 | 0.382
